Test results as given in patent US6682920B1, “Compositions and methods for identifying PKB kinase inhibitors” (Onyx Pharmaceuticals, Inc., priority 1997, dated 2004).
Entries after “also recorded” stand apart in the source; their conditions may differ. Each block holds one molecule with its values, some of them ahead of it.

How the values were obtained:
[1] = tested on: PKB kinases; experiment: Association of PKB kinases with sucrose-loaded lipid vesicles containing inositol phospholipids; assay type: binding, sheep
Protocol: To assay association of PKB and PKB kinases with lipid vesicles and the effects of different lipids on the phosphorylation of PKB, the lipid vesicles were prepared by: sonicating dry lipid films into 0.2 M sucose; 20 mM KCl; 20 mM HEPES, pH 7.4 30° C.; 0.01% azide (to give 200 μM phosphatidylcholine, 150 μM phosphatidylserine, 20 μM phosphatidylethanolamine, 10 μM spingomylin plus the indicated concentrations of inositol lipids final in the assay. These were mixed with the relevant kinases in an assay buffer containing 1 mgml^−1 BSA; 0.12 M NaCl; 1 mM EGTA; 0.2 mM calcium; 1.5 mM MgCl2; 1 mM DTT; 0.01% azide; 5 mM KCl; 20 mM HEPES, pH 7.4, 30° C. (approx. 50 nM free calcium, all final concentrations in assay) with or without [γ^32P]-ATP (1 μM final concentration) and (EE)-PKB (2.5 μM final concentration). If the assays were to estimate associated of the kinases with the lipid vesicles then after 4 mins at 30° C. the assays were centrifuged (airfuge (Beckman) maximum speed for 30 mins). Aliquots of the supernatents were removed for assays or immunoblotting. […] Phosphorylation of PKB(s) were quantitated as described above. […]
Under the same assay conditions used for the PKB phosphorylation studies, we investigated the association of both the PKB kinases and PKB itself (FIG. 2C) with the lipid vesicles in these assays. […] Phosphorylation of PKB(s) was quantitated as described herein.

[2] = biological target: PKB kinases A-D; experiment: PtdIns lipid-dependent phosphorylation and activation of PKB by purified PKB kinases (lipid vesicle assay); assay type: biochemical, sheep; conditions: mixed lipid vesicles, (EE)-PKB 2.5 μM, [γ32P]-ATP; FIG. 2A/2B
Protocol: Assays were run in 2 stages. The first stage was run with mixed lipid vesicles either with or without D-D-S/A-PtdIns(3,4,5)P3 (final concentration 5 μM) and in the presence or absence of PKB kinase A (6 nM), wild-type (EE)-PKB (2.5 μM) or T308A/S473A-(EE)-PKB) and [γ^32P]-ATP (50 μM). The assays were stopped and PKB proteins were immunoprecipitated with α(EE)-beads, washed then incubated with [γ^32P]-ATP (10 μM) and myelin basic protein (MBP; 7 μM) to determine the activity of the immobilized PKB. The results are from a single experiment and are represented as means±SE(n=3-5); four further experiments gave similar results. PKB kinases B, C and D gave very similar results.
Assays contained; a constant concentration of mixed lipid vesicles containing the indicated concentrations of inositol phospholipids, (EE)-PKB (2.5 μM), PKB kinase A (5 nM) and [γ^32P]-ATP (1 μM, total volume 12 μl). The data shown are pooled from 12 separate experiments and are means (n=3-6, their average se was 6%).
To assay association of PKB and PKB kinases with lipid vesicles and the effects of different lipids on the phosphorylation of PKB, the lipid vesicles were prepared by: sonicating dry lipid films into 0.2 M sucose; 20 mM KCl; 20 mM HEPES, pH 7.4 30° C.; 0.01% azide (to give 200 μM phosphatidylcholine, 150 μM phosphatidylserine, 20 μM phosphatidylethanolamine, 10 μM spingomylin plus the indicated concentrations of inositol lipids final in the assay. These were mixed with the relevant kinases in an assay buffer containing 1 mgml^−1 BSA; 0.12 M NaCl; 1 mM EGTA; 0.2 mM calcium; 1.5 mM MgCl2; 1 mM DTT; 0.01% azide; 5 mM KCl; 20 mM HEPES, pH 7.4, 30° C. (approx. 50 nM free calcium, all final concentrations in assay) with or without [γ^32P]-ATP (1 μM final concentration) and (EE)-PKB (2.5 μM final concentration). If the assays were to estimate associated of the kinases with the lipid vesicles then after 4 mins at 30° C. the assays were centrifuged (airfuge (Beckman) maximum speed for 30 mins). Aliquots of the supernatents were removed for assays or immunoblotting. The pellets were rinsed rapidly with assay buffer, recentrifuged and dissolved in SDS-sample buffer. Phosphorylation of PKB(s) were quantitated as described above. […]

[3] = biological target: (EE)-PKB, EE-tagged protein kinase B purified from SF9 cells (UniProt P31749)
[4] = tested on: PKB kinases; experiment: Phosphorylation of a water-soluble 30-mer peptide based on the PKB sequence around Thr308 by PKB kinases; assay type: biochemical, sheep; conditions: not shown
[5] = biological target: (EE)-PKB, EE-tagged protein kinase B purified from SF9 cells, P31749
Sequence of (EE)-PKB, EE-tagged protein kinase B purified from SF9 cells, P31749 (P31749 whole entry, looked up): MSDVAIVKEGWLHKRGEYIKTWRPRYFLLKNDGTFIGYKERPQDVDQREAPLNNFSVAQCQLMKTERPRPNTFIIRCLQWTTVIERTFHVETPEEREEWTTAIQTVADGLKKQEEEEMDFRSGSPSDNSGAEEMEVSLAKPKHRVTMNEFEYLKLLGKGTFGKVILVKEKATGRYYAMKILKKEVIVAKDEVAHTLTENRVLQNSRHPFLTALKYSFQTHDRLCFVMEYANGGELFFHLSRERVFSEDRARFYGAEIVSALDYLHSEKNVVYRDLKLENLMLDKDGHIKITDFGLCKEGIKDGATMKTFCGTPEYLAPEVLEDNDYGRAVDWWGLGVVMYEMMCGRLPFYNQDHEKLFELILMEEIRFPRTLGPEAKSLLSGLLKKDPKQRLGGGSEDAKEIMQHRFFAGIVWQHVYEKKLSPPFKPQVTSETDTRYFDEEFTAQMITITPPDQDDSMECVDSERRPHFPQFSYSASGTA

Molecule: CCCCCCCCCCCCCCCC(=O)OC[C@H](COP(=O)(O)O[C@H]1[C@H](O)[C@@H](O)[C@H](OP(=O)(O)O)[C@@H](OP(=O)(O)O)[C@H]1O)OC(=O)CCCCCCCCCCCCCCC [D-D-P/P-PtdIns(3,4)P2]
association of PKB kinases with lipid vesicles containing the lipid ([1]; 4 mins at 30° C., vesicles pelleted by centrifugation): associated with the lipid vesicles

Molecule: CCCCC/C=C\C/C=C\C/C=C\C/C=C\CCCC(=O)OC(COC(=O)CCCCCCCCCCCCCCCCC)COP(=O)(O)OC1C(O)C(OP(=O)(O)O)C(OP(=O)(O)O)C(OP(=O)(O)O)C1O [D-D-S/A-PtdIns(3,4,5)P3, (1-stearoyl, 2-arachidonyl) snphosphatidyl D-myo-inositol (3,4,5)-trisphosphate]
molar percentage of the lipid in vesicles at which PKB kinases associated ([1]; very low molar percentages): 0.003%
PKB kinase phosphorylation/activation of PKB in the presence of the lipid [2]: phosphorylate and activate; also recorded: equally effectively activated

PKB kinase phosphorylation/activation of PKB in the presence of the lipid [2]: equally effectively activated
Molecule: CCCCC/C=C\C/C=C\C/C=C\C/C=C\CCCC(=O)OC(COC(=O)CCCCCCCCCCCCCCCCC)COP(=O)(O)OC1C(O)C(OP(=O)(O)O)C(OP(=O)(O)O)C(OP(=O)(O)O)C1O [D-L-S/A-PtdIns(3,4,5)P3, (2-arachidonyl, 3-stearoyl) sn-phosphatidyl D-myoinositol(3,4,5)-trisphosphate]

Molecule: PKB kinase A purified from sheep brain cytosol
phosphorylation and activation of PKB (activation judged by myelin basic protein phosphorylation) [3]: All four activities phosphorylate and activate (as judged by mylein basic protein (MBP) phosphorylation) PKB in the presence of the biological stereoisomers of PtdIns(3,4,5)P3 or PtdIns(3,4)P2

PKB kinase phosphorylation/activation of PKB in the presence of the lipid [2]: inactive against PKB
Molecule: phosphatidylinositol4,5-bisphosphate [PtdIns(4,5)P2]

Molecule: phosphatidylinositol-3,4,5-triphosphate [PtdIns(3,4,5)P3]
effect of the lipid on phosphorylation of 30-mer PKB Thr308 peptide [4]: dramatically inhibited

PKB kinase phosphorylation/activation of PKB in the presence of the lipid [2]: phosphorylate and activate
Molecule: phosphatidylinositol-3,4-bisphosphate [PtdIns(3,4)P2]
effect of the lipid on phosphorylation of 30-mer PKB Thr308 peptide [4]: dramatically inhibited

B1: (EE)-II, N-terminally EE-tagged 55 kd PKB kinase (complete ORF of FIG. 3) expressed in cos-7 cells (protein)
chain: MARTTSQLYDAVPIQSSVVLCSCPSPSMVRSQTESSTPPGIPGGSRQGPAMDGTAAEPRPGAGSLQHAQPPPQPRKKRPEDFKFGKILGEGSFSTVVLARELATSREYAIKILEKRHIIKENKVPYVTRERDVMSRLDHPFFVKLYFTFQDDEKLYFGLSYAKNGELLKYIRKIGSFDETCTRFYTAEIVSALEYLHGKGIIHRDLKPENILLNEDMHIQITDFGTAKVLSPESKQARANSFVGTAQYVSPELLTEKSACKSSDLWALGCIIYQLVAGLPPFRAGNEYLIFQKIIKLEYDFPEKFFPKARDLVEKLLVLDATKRLGCEEMEGYGPLKAHPFFESVTWENLHQQTPPKLTAYLPAMSEDDEDCYGNYDNLLSQFGCMQVSSSSSSHSLSASDTGLPQRSGSNIEQYIHDLDSNSFELDLQFSEDEKRLLLEKQAGGNPWHQFVENNLILKMGPVDKRKGLFARRRQLLLTEGPHLYYVDPVNKVLKGEIPWSQELRPEAKNFKTFFVHTPNRTYYLMDPSGNAHKWCRKIQEVWRQRYQSHPDAAVQ
PKB kinase activity ([32P] in PKB, autoradiogram) [5]: The protein with the intact protein kinase domain phosphorylated PKB in a PtdIns(3,4,5)P3-sensitive manner
